Reference: ChEMBL document CHEMBL4732113, “Exploiting the tolerant region I of the non-nucleoside reverse transcriptase inhibitor (NNRTI) binding pocket. Part 2: Discovery of diarylpyrimidine derivatives as potent HIV-1 NNRTIs with high Fsp values and favorable drug-like properties” (Eur J Med Chem, 2021)

What was measured:
[1] = system: Human immunodeficiency virus 1; assay: Antiviral activity against HIV1 3B infected in human MT4 cells assessed as reduction in virus-induced cytopathic effect by MTT assay; assay type: functional, organism-based; settings: Human immunodeficiency virus 1, 3B
[2] = system: Human immunodeficiency virus 1; assay: Antiviral activity against HIV1 RES056 harboring K103N/Y181C double mutant infected in human MT4 cells assessed as reduction in virus-induced cytopathic effect by MTT assay; assay type: functional, organism-based
[3] = (§1) Cytotoxicity against human MT4 cells assessed as reduction in cell viability by MTT assay; assay type: cell-based; settings: MT4 cells
[4] = Selectivity index, ratio of CC50 for human MT4 cells to EC50 for antiviral activity against HIV 3B infected in human MT4 cells; assay type: toxicity, cell-based; settings: read-out: Ratio CC50/EC50
[5] = Selectivity index, ratio of CC50 for human MT4 cells to EC50 for antiviral activity against HIV HIV1 RES056 harboring K103N/Y181C double mutant infected in human MT4 cells; assay type: toxicity, cell-based; settings: read-out: Ratio CC50/EC50
[6] = system: Human immunodeficiency virus 1; assay: Antiviral activity against HIV1 harboring L100I mutant infected in human MT4 cells assessed as reduction in virus-induced cytopathic effect by MTT assay; assay type: functional, organism-based; settings: Human immunodeficiency virus 1, MT4
[7] = system: Human immunodeficiency virus 1; assay: Antiviral activity against HIV1 harboring K103N mutant infected in human MT4 cells assessed as reduction in virus-induced cytopathic effect by MTT assay; assay type: functional, organism-based; settings: Human immunodeficiency virus 1, MT4
[8] = system: Human immunodeficiency virus 1; assay: Antiviral activity against HIV1 harboring Y181C mutant infected in human MT4 cells assessed as reduction in virus-induced cytopathic effect by MTT assay; assay type: functional, organism-based; settings: Human immunodeficiency virus 1, MT4
[9] = system: Human immunodeficiency virus 1; assay: Antiviral activity against HIV1 harboring Y188L mutant infected in human MT4 cells assessed as reduction in virus-induced cytopathic effect by MTT assay; assay type: functional, organism-based; settings: Human immunodeficiency virus 1, MT4
[10] = system: Human immunodeficiency virus 1; assay: Antiviral activity against HIV1 harboring E138K mutant infected in human MT4 cells assessed as reduction in virus-induced cytopathic effect by MTT assay; assay type: functional, organism-based; settings: Human immunodeficiency virus 1, MT4
[11] = system: Human immunodeficiency virus 1; assay: Antiviral activity against HIV1 harboring F227L/V106A mutant infected in human MT4 cells assessed as reduction in virus-induced cytopathic effect by MTT assay; assay type: functional, organism-based; settings: Human immunodeficiency virus 1, MT4
[12] = biological target: Human immunodeficiency virus type 1 reverse transcriptase (Human immunodeficiency virus 1, UniProt Q72547); assay: Inhibition of HIV1 reverse transcriptase assessed as reduction in biotin-dUTP incorporation into template incubated for 1 hr by ELISA
[13] = system: Human immunodeficiency virus 1; assay: Potency index, ratio of etravirine EC50 to test compound EC50 for antiviral activity against HIV1 3B infected in human MT4 cells assessed as reduction in virus-induced cytopathic effect by MTT assay; assay type: functional
MT4 = assay: as §1; assay type: cell-based; settings: mt4
[14] = system: Human immunodeficiency virus 1; assay: Potency index, ratio of etravirine EC50 to test compound EC50 for antiviral activity against HIV1 harboring K103N mutant infected in human MT4 cells assessed as reduction in virus-induced cytopathic effect by MTT assay; assay type: functional
[15] = Human immunodeficiency virus 1, RES056, MT4, read-out: EC50

Row | Compound | EC50 ([1]; read-out: EC50) [nM] | EC50 ([1]; read-out: pEC50 (converted)) [nM] | EC50 [2, 15] [nM] | CC50 [3] [nM] | selectivity ratio [4] | selectivity ratio [5] | EC50 [6] [nM] | EC50 [7] [nM] | EC50 [8] [nM] | EC50 [9] [nM] | EC50 [10] [nM] | EC50 [11] [nM] | IC50 [12] [nM] | Ratio EC50 [13] | EC50 ([2]; mt4) | CC50 (MT4) | Ratio EC50 [14]
1 | C=CC(=O)N1CCN(Cc2ccc(Nc3nccc(Oc4c(C)cc(/C=C/C#N)cc4C)n3)cc2)CC1 | 5.7 | 5.75 | > 5210 | 5210 | 909 | < 1 | 34 | 10 | 84 | > 5210 | 41 | 870 | 71 | – | – | – | –
2 | Cc1cc(C#N)cc(C)c1Oc1ccnc(Nc2ccc(CN3CCCN(S(C)(=O)=O)CC3)cc2)n1 | 79 | – | > 7850 | 7850 | 100 | < 1 | – | – | – | – | – | – | – | – | – | – | –
3 | Cc1cc(/C=C/C#N)cc(C)c1Oc1ccnc(Nc2ccc(CN3CCSCC3)cc2)n1 | 4.7 | 4.68 | 3560 | 14900 | 3160 | 4 | 24 | 4.4 | 99 | 4280 | 25 | 280 | 62 | – | – | – | –
4 | Cc1cc(/C=C/C#N)cc(C)c1Oc1ccnc(Nc2ccc(CN3CC[S+]([O-])CC3)cc2)n1 | 2.4 | 2.4 | 2680 | 23400 | 9860 | 9 | 20 | 3.4 | 67 | 5200 | 9.8 | 350 | 51 | 2 | – | – | –
5 | C=CC(=O)N1CCN(Cc2ccc(Nc3nccc(Oc4c(C)cc(C#N)cc4C)n3)cc2)CC1 | 56 | 56.2 | > 7580 | 7580 | 134 | < 1 | – | – | – | – | – | – | 160 | – | – | – | –
6 | Cc1cc(/C=C/C#N)cc(C)c1Oc1ccnc(Nc2ccc(CN3CCCN(S(C)(=O)=O)CC3)cc2)n1 | 27 | – | > 17400 | 17400 | 644 | < 1 | – | – | – | – | – | – | – | – | – | – | –
7 | Cc1cc(C#N)cc(C)c1Oc1ccnc(Nc2ccc(CN3CCSCC3)cc2)n1 | 28 | – | > 24000 | 24000 | 847 | < 1 | – | – | – | – | – | – | – | – | – | – | –
8 | CCS(=O)(=O)N1CCN(Cc2ccc(Nc3nccc(Oc4c(C)cc(/C=C/C#N)cc4C)n3)cc2)CC1 | 5.7 | 5.75 | 980 | 4600 | 810 | 5 | 15 | 4.9 | 46 | 1280 | 17 | 200 | 52 | – | – | – | –
9 | Cc1cc(C#N)cc(C)c1Oc1ccnc(Nc2ccc(CN3CCCN(S(=O)(=O)C4CC4)CC3)cc2)n1 | 100 | 100 | – | – | – | – | – | – | – | – | – | – | 200 | – | Not Active | Not Active | –
10 | Cc1cc(/C=C/C#N)cc(C)c1Oc1ccnc(Nc2ccc(CN3CCCN(S(=O)(=O)N(C)C)CC3)cc2)n1 | 21 | 20.9 | > 3900 | 3900 | 182 | < 1 | – | – | – | – | – | – | 94 | – | – | – | –
11 | Cc1cc(/C=C/C#N)cc(C)c1Oc1ccnc(Nc2ccc(CN3CCN(S(=O)(=O)C(C)C)CC3)cc2)n1 | 5.6 | – | > 3810 | 3810 | 685 | < 1 | 25 | 8.5 | 69 | > 3810 | 36 | 230 | – | – | – | – | –
12 | Cc1cc(C#N)cc(C)c1Oc1ccnc(Nc2ccc(CN3CCN(S(=O)(=O)C(C)C)CC3)cc2)n1 | 30 | 30.2 | > 4540 | 4540 | 152 | < 1 | – | – | – | – | – | – | 73 | – | – | – | –
13 | Cc1cc(C#N)cc(C)c1Oc1ccnc(Nc2ccc(CN3CCN(S(=O)(=O)N(C)C)CC3)cc2)n1 | 48 | – | > 4460 | 4460 | 93 | < 1 | – | – | – | – | – | – | – | – | – | – | –
14 | CCS(=O)(=O)N1CCN(Cc2ccc(Nc3nccc(Oc4c(C)cc(C#N)cc4C)n3)cc2)CC1 | 17 | – | > 5240 | 5240 | 310 | < 1 | – | – | – | – | – | – | – | – | – | – | –
15 | Cc1cc(C#N)cc(C)c1Oc1ccnc(Nc2ccc(CN3CC[S+]([O-])CC3)cc2)n1 | 17 | – | > 54700 | 54700 | 3250 | < 1 | – | – | – | – | – | – | – | – | – | – | –
16 | Cc1cc(C#N)cc(C)c1Oc1ccnc(Nc2ccc(CN3CCS(=O)(=O)CC3)cc2)n1 | 14 | 14.1 | > 53200 | 53200 | 3850 | < 1 | – | – | – | – | – | – | 78 | – | – | – | –
17 | Cc1cc(C#N)cc(C)c1Oc1ccnc(Nc2ccc(CN3CCCN(S(=O)(=O)N(C)C)CC3)cc2)n1 | 160 | – | > 4190 | 4190 | 26 | < 1 | – | – | – | – | – | – | – | – | – | – | –
18 | Cc1cc(/C=C/C#N)cc(C)c1Oc1ccnc(Nc2ccc(CN3CCCN(S(=O)(=O)C(C)C)CC3)cc2)n1 | 19 | – | > 4640 | 4640 | 244 | < 1 | – | – | – | – | – | – | – | – | – | – | –
19 | Cc1cc(/C=C/C#N)cc(C)c1Oc1ccnc(Nc2ccc(CN3CCN(S(=O)(=O)N(C)C)CC3)cc2)n1 | 4.5 | – | > 3070 | 3070 | 677 | < 1 | 29 | 11 | 92 | > 3070 | 34 | > 3070 | – | – | – | – | –
20 | Cc1cc(/C=C/C#N)cc(C)c1Oc1ccnc(Nc2ccc(CN3CCS(=O)(=O)CC3)cc2)n1 | 2.1 | 2.09 | 1080 | 18500 | 8640 | 17 | 11 | 1.9 | 33 | 3090 | 7.5 | 91 | 34 | 2 | – | – | 1.7
21 | Cc1cc(C#N)cc(C)c1Oc1ccnc(Nc2ccc(CN3CCN(S(=O)(=O)C4CC4)CC3)cc2)n1 | 25 | – | > 4430 | 4430 | 174 | < 1 | – | – | – | – | – | – | – | – | – | – | –
22 | Cc1cc(/C=C/C#N)cc(C)c1Oc1ccnc(Nc2ccc(CN3CCN(S(=O)(=O)C4CC4)CC3)cc2)n1 | 6.1 | – | > 4350 | 4350 | 717 | < 1 | 17 | 6.8 | 64 | > 4350 | 31 | 360 | – | – | – | – | –
23 | O=C1Nc2ccc(Cl)cc2[C@@](C#CC2CC2)(C(F)(F)F)O1 [EFAVIRENZ] | 2.8 | 2.82 | 340 | > 6340 | – | – | – | – | 5 | 260 | – | – | – | – | – | – | –
24 | Cc1cc(C#N)cc(C)c1Oc1nc(Nc2ccc(C#N)cc2)nc(N)c1Br [ETRAVIRINE] | 4.2 | 4.17 | 61 | > 4590 | – | – | 8.3 | – | 15 | 19 | 9.8 | 26 | – | – | – | – | –
25 | Nc1ccn([C@@H]2CS[C@H](CO)O2)c(=O)n1 [LAMIVUDINE] | 6000 | – | 6830 | > 87200 | > 15 | > 13 | 1460 | 2740 | 3200 | 2710 | 6110 | 2360 | – | – | – | – | –
26 | Cc1ccnc2c1NC(=O)c1cccnc1N2C1CC1 [NEVIRAPINE] | 150 | – | > 15000 | > 15000 | – | – | 620 | – | 5050 | 9070 | 170 | 8040 | – | – | – | – | –
27 | Cc1cn([C@H]2C[C@H](N=[N+]=[N-])[C@@H](CO)O2)c(=O)[nH]c1=O [ZIDOVUDINE] | 26 | – | 28 | > 7480 | > 293 | > 267 | 7.1 | 19 | 13 | 8.6 | 36 | 8.7 | – | – | – | – | –
